For the assay, the target named is canine TRPM8 (Canis lupus familiaris, UniProt Q1A7N1). Description: In Vitro Canine TRPM8 Functional Assay (intracellular Ca2+ fluorescence, icilin challenge). The assay is classed as cell-based. As to conditions: for IC50: icilin at ~80% maximal response. As for the experimental part: The functional activity of compounds of the formula (I) was determined by measuring changes in intracellular calcium concentration using a Ca^2+-sensitive fluorescent dye. The changes in fluorescent signal were monitored by a fluorescence plate reader, either a FLIPR™ (Molecular Devices) or FDSS (Hamamatsu).
At 24 hrs prior to assay, HEK293 cells stably expressing canine TRPM8 were seeded in culture medium in black wall, clear-base poly-D-lysine coated 384-well plates (BD Biosciences, NJ, USA) and grown overnight in 5% CO2 at 37° C. On assay day, growth media was removed and cells were loaded with Calcium 3 Dye (Molecular Devices) for 35 min at 37° C., under 5% CO2 and then for 25 min at room temperature and atmosphere. Subsequently, cells were tested for agonist-induced increases in intracellular Ca^2+ levels using FLIPR™ or FDSS. Cells were challenged with a compound of the Formula (I) (at varying concentrations) and intracellular Ca^2+ was measured for 5 min prior to the addition of icilin to all wells to achieve a final concentration that produces approximately an 80% maximal response. EC50 or IC50 values for compounds of the present invention were determined from eight-point dose-response studies. Curves were generated using the average of quadruplicate wells for each data point.

[1] abbreviates: HEK293, @ 0.2 μM, HEK293 cells stably expressing canine TRPM8, read-out: % Inh (%) @ 0.2 μM.
The mark [2] stands for this setting: HEK293 cells stably expressing canine TRPM8.

Where two headings read alike, the source gives them in different places.

For orientation: IC50 means the midpoint of a concentration-inhibition curve. Read a low IC50 as greater potency in that assay. As usually defined, the EC50 is the concentration needed to bring the measured effect to its halfway point. High values mean lower potency in that assay, low ones higher potency in that assay.

Sequence of canine TRPM8 (Q1A7N1 1-1104): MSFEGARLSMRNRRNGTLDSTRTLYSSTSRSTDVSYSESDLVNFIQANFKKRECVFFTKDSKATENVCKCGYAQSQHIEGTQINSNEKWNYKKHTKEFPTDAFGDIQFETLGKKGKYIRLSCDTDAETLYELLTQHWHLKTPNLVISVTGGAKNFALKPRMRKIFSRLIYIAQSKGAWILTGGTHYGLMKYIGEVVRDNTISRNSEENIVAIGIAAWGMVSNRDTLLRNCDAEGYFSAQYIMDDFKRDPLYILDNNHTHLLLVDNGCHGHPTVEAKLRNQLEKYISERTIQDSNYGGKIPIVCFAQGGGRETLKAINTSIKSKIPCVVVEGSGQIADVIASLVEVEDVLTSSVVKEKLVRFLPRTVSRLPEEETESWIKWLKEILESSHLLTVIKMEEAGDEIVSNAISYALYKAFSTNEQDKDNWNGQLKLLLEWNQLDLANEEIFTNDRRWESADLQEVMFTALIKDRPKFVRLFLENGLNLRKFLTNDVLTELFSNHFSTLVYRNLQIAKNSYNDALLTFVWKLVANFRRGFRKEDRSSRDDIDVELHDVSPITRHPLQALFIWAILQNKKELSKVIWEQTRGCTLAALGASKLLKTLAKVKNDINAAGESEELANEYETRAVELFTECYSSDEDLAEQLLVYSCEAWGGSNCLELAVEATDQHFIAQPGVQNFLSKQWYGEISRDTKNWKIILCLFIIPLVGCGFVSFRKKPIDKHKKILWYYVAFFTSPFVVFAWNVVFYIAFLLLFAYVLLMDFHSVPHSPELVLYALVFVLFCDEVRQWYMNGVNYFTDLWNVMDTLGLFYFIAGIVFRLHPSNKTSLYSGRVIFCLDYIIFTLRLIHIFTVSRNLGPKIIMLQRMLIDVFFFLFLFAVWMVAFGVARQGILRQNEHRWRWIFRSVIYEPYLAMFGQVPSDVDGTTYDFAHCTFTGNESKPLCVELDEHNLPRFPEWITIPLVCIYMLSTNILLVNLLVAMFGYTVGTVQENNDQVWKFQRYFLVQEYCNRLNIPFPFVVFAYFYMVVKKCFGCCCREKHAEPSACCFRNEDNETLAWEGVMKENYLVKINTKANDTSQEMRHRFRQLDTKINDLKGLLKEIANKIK

In the case of `CCc1c(N(Cc2cccc(C(F)(F)F)c2)S(=O)(=O)c2ccccc2)nc2c(C(F)(F)F)cccn12` [Compound 59], the inhibition at 0.2 µM under setting [1] stood at 97%. The compound also yielded an IC50 under setting [2] of 80.2 nM.

As to `Cc1c(N(Cc2ccc(C(F)(F)F)cc2)S(=O)(=O)c2ccc(-n3cccn3)cc2)nc2ccc(Cl)cn12` [Compound 105], under setting [1], the inhibition at 0.2 µM is 98%. Under setting [2], this compound came in with an IC50 of 30.3 nM.

For the compound `Cc1c(N(Cc2cccc(OC(F)(F)F)c2)S(=O)(=O)c2ccccc2)nc2ccc(Cl)cn12` [Compound 45], the inhibition at 0.2 µM under setting [1] came out at 99%. Besides, half-maximal inhibition under setting [2] (IC50) was put at 39 nM.

`O=S(=O)(c1ccccc1)N(Cc1ccc(OC(F)(F)F)cc1)c1nc2ccc(Cl)cn2c1Cl` [Compound 7]: half-maximal inhibition under setting [2] (IC50) was put at 29.8 nM.

`O=S(=O)(c1ccccc1)N(Cc1ccc(F)c(C(F)(F)F)c1)c1nc2ccccn2c1Cl` [Compound 1] had an IC50 under setting [2] of 3.25 nM.

For `O=S(=O)(c1ccc(N2CCOCC2)nc1)N(Cc1ccc(OC(F)(F)F)cc1)c1nc2ccc(Cl)cn2c1Cl` [Compound 76], the inhibition at 0.2 µM under setting [1] came to 72%. Under setting [2], this compound had an IC50 of 70.5 nM.

On to `O=S(=O)(c1ccccc1)N(Cc1ccc(C(F)(F)F)c(F)c1)c1nc2ccccn2c1Br` [Compound 25], for which the IC50 under setting [2] stood at 3.49 nM.

As for `O=S(=O)(c1ccccc1)N(Cc1cccc(C(F)(F)F)c1)c1nc2ccccn2c1C1CC1` [Compound 73], the inhibition at 0.2 µM under setting [1] is 100%.

`O=S(=O)(c1ccc(F)cc1)N(Cc1ccc(OC(F)(F)F)cc1)c1nc2ccccn2c1Cl` [Compound 9]: the IC50 under setting [2] worked out at 13.6 nM.

On to `Cc1cccn2c(C)c(N(Cc3cccc(C(F)(F)F)c3)S(=O)(=O)c3ccccc3)nc12` [Compound 34], for which the inhibition at 0.2 µM under setting [1] came out at 100%. In addition, half-maximal inhibition under setting [2] (IC50) required 9.83 nM.

Turning to `Cc1cccn2c(C)c(N(Cc3ccc(OC(F)(F)F)cc3)S(=O)(=O)c3ccccc3)nc12` [Compound 30], the inhibition at 0.2 µM under setting [1] turned out to be 100%. Besides, under setting [2], 10 nM corresponded to half-maximal inhibition (IC50).

Consider `CCc1c(N(Cc2ccc(C(F)(F)F)cc2)S(=O)(=O)c2ccccc2)nc2c(C(F)(F)F)cccn12` [Compound 58], for which the inhibition at 0.2 µM under setting [1] came to 87%. Under setting [2], the concentration for half-maximal inhibition (IC50) was determined as 71.5 nM.

On to `COC(=O)c1ccc(S(=O)(=O)N(Cc2ccc(F)c(F)c2)c2nc3ccc(Cl)cn3c2C)cc1` [Compound 111], for which, under setting [1], the inhibition at 0.2 µM is 73%. Moreover, it took 81.5 nM to reach half-maximal inhibition under setting [2] (IC50).

For the compound `COC(=O)c1ccc(S(=O)(=O)N(Cc2ccc(OC(F)(F)F)cc2)c2nc3ccccn3c2C(C)C)cc1` [Compound 108], under setting [2], the “% Inh (%) @ 0.2 μM” value stood at 101% and the IC50 came out at 10.4 nM.

For the compound `O=S(=O)(c1ccc(N2CCOCC2)nc1)N(Cc1ccc(C(F)(F)F)c(F)c1)c1nc2ccccn2c1Cl` [Compound 91], the inhibition at 0.2 µM under setting [1] was determined as 99%. The compound also showed an IC50 under setting [2] of 41.6 nM.

As to `Cc1c(N(Cc2ccc(F)c(Cl)c2)S(=O)(=O)c2ccccc2)nc2ccc(Cl)cn12` [Compound 46], the inhibition at 0.2 µM under setting [1] came out at 99%. The compound further showed an IC50 under setting [2] of 13.6 nM.

As for `CC(C)c1c(N(Cc2ccc(C(F)(F)F)cc2)S(=O)(=O)c2ccccc2)nc2ccccn12` [Compound 53], the inhibition at 0.2 µM under setting [1] amounted to 101%. Half-maximal inhibition under setting [2] (IC50) was put at 3.19 nM.

Turning to `Cc1ccn2c(C)c(N(Cc3ccc(C(F)(F)F)c(F)c3)S(=O)(=O)c3ccccc3)nc2c1` [Compound 27], the inhibition at 0.2 µM under setting [1] amounted to 100%. This compound also yielded an IC50 under setting [2] of 6.11 nM.

With `CCc1c(N(Cc2ccc(OC(F)(F)F)cc2)S(=O)(=O)c2ccc(-n3cccn3)cc2)nc2ccc(Cl)cn12` [Compound 89], under setting [1], the inhibition at 0.2 µM came to 99%. The compound also came in with an IC50 under setting [2] of 25 nM.

Take `O=S(=O)(c1ccc(-n2cccn2)cc1)N(Cc1ccc(C(F)(F)F)c(F)c1)c1nc2ccccn2c1Br` [Compound 75]: under setting [1], the inhibition at 0.2 µM turned out to be 99%. This compound registered an IC50 under setting [2] of 1.94 nM.

Regarding `Cc1ccc2nc(N(Cc3ccc(C(F)(F)F)c(F)c3)S(=O)(=O)c3ccc(F)cc3)c(C)n2c1` [Compound 68], under setting [1], the inhibition at 0.2 µM was found to be 100%. Besides, under setting [2], the IC50 is 41.6 nM.

Consider `O=S(=O)(c1ccc(N2CCOCC2)nc1)N(Cc1cccc(C(F)(F)F)c1)c1nc2ccccn2c1Cl` [Compound 94], for which the inhibition at 0.2 µM under setting [1] came to 97%. The compound also yielded a concentration for half-maximal inhibition (IC50) under setting [2] of 48.4 nM.

For `CC(C)c1c(N(Cc2cccc(C(F)(F)F)c2)S(=O)(=O)c2ccccc2)nc2ccccn12` [Compound 54], the inhibition at 0.2 µM under setting [1] came to 101%. Moreover, the concentration for half-maximal inhibition (IC50) under setting [2] was 7.92 nM.

Take `CCc1c(N(CCC(F)(F)F)S(=O)(=O)c2ccccc2)nc2c(C(F)(F)F)cccn12` [Compound 66]: the inhibition at 0.2 µM under setting [1] amounted to 83%.

For the compound `COC(=O)c1ccc(S(=O)(=O)N(Cc2ccc(OC(F)(F)F)cc2)c2nc3ccc(F)cn3c2C)cc1` [Compound 118, Methyl 4-(N-(6-fluoro-3-methylimidazo[1,2-a]pyridin-2-yl)-N-(4-(trifluoromethoxy)benzyl)sulfamoyl)benzoate], the inhibition at 0.2 µM under setting [1] is 100%. Further, under setting [2], the IC50 was found to be 18 nM.

`O=S(=O)(c1ccccc1)N(Cc1ccc(OC(F)(F)F)cc1)c1cn2ccccc2n1` [Compound 12]: the IC50 under setting [2] came to 48.7 nM.

For the compound `O=S(=O)(c1ccc(N2CCOCC2)nc1)N(Cc1ccc(C(F)(F)F)c(F)c1)c1nc2ccc(Cl)cn2c1Cl` [Compound 74], the inhibition at 0.2 µM under setting [1] stood at 74%. Besides, under setting [2], the IC50 is 62.6 nM.

In the case of `Cc1c(N(Cc2ccc(OC(F)(F)F)cc2)S(=O)(=O)c2ccccc2)nc2cc(Cl)ccn12` [Compound 14], inhibition under setting [2] was half-maximal at 20.7 nM (IC50).

On to `O=S(=O)(c1ccc(-n2cccn2)cc1)N(Cc1ccc(C(F)(F)F)cc1)c1nc2ccccn2c1Cl` [Compound 98], for which the inhibition at 0.2 µM under setting [1] is 99%. Under setting [2], this compound registered an IC50 of 4.04 nM.

For `O=S(=O)(c1ccc(N2CCOCC2)nc1)N(Cc1ccc(C(F)(F)F)c(F)c1)c1nc2ccccn2c1Br` [Compound 85], under setting [1], the inhibition at 0.2 µM turned out to be 100%. The compound further gave an IC50 under setting [2] of 31.2 nM.

`Cc1cccn2c(C)c(N(Cc3ccc(F)c(C(F)(F)F)c3)S(=O)(=O)c3ccccc3)nc12` [Compound 31]: under setting [1], the inhibition at 0.2 µM came out at 101%. The compound further displayed an IC50 under setting [2] of 10.3 nM.

On to `Cc1c(N(Cc2ccc(C(F)(F)F)c(F)c2)S(=O)(=O)c2ccccc2)nc2cc(C(F)(F)F)ccn12` [Compound 101], for which the inhibition at 0.2 µM under setting [1] was 22%.

Turning to `CC(C)c1c(N(Cc2ccc(OC(F)(F)F)cc2)S(=O)(=O)c2ccccc2)nc2ccccn12` [Compound 52], the inhibition at 0.2 µM under setting [1] was 101%. Also, the IC50 under setting [2] came out at 9.43 nM.

Compound `O=S(=O)(c1ccccc1)N(Cc1ccc(OC(F)(F)F)cc1)c1nc2ccccn2c1Br` [Compound 5] had an IC50 under setting [2] of 5.3 nM.

For `O=S(=O)(c1ccc(-n2cccn2)cc1)N(Cc1ccc(OC(F)(F)F)cc1)c1nc2ccccn2c1Br` [Compound 77], the inhibition at 0.2 µM under setting [1] is 100%. The IC50 under setting [2] came to 2.27 nM.

For `COC(=O)c1ccc(S(=O)(=O)N(Cc2ccc(F)c(C(F)(F)F)c2)c2nc3ccc(F)cn3c2C)cc1` [Compound 119, Methyl 4-(N-(6-fluoro-3-methylimidazo[1,2-a]pyridin-2-yl)-N-(4-fluoro-3-(trifluoromethyl)benzyl)sulfamoyl)benzoate], the inhibition at 0.2 µM under setting [1] stood at 100%. Also, the IC50 under setting [2] is 23.9 nM.

Consider `Cc1c(N(Cc2ccc(F)c(F)c2)S(=O)(=O)c2ccc(C(=O)O)cc2)nc2ccc(Cl)cn12` [Compound 114], for which the inhibition at 0.2 µM (HEK293, read-out: % Inh (%) @ 0.2 μM) was 38%.

Compound `O=S(=O)(c1ccc(F)cc1)N(Cc1ccc(F)c(C(F)(F)F)c1)c1nc2ccccn2c1Cl` [Compound 10] returned an IC50 under setting [2] of 17.4 nM.

In the case of `O=S(=O)(c1ccc(-n2cccn2)cc1)N(Cc1ccc(F)c(C(F)(F)F)c1)c1nc2ccccn2c1Br` [Compound 79], under setting [1], the inhibition at 0.2 µM was 99%. Under setting [2], the midpoint of inhibition, the IC50, lay at 3.17 nM.

`Cc1c(N(Cc2ccc(OC(F)(F)F)cc2)S(=O)(=O)CCN(CC(C)C)CC(C)C)nc2cc(C(F)(F)F)ccn12` [Compound 106, N-(4-Trifluoromethoxybenzyl)-N-(7-trifluoromethyl-3-methylimidazo[1,2-a]pyridin-2-yl)-2-(N,N-diisobutylamino)ethylsulfonamide]: the half-maximal effective concentration (EC50) under setting [2] is 93 nM.

Take `Cc1c(N(Cc2ccc(F)c(C(F)(F)F)c2)S(C)(=O)=O)nc2ccc(F)cn12` [Compound 23]: the inhibition at 0.2 µM under setting [1] was 58%.

Under setting [2], `O=S(=O)(c1ccccc1)N(Cc1ccc(OC(F)(F)F)cc1)c1nc2ccccn2c1Cl` [Compound 3] registered an IC50 of 1.8 nM. This counts as single-digit nanomolar.

In the case of `CCc1c(N(Cc2ccc(F)c(C(F)(F)F)c2)S(=O)(=O)c2ccccc2)nc2c(C(F)(F)F)cccn12` [Compound 55, N-(3-Ethyl-8-trifluoromethylimidazo[1,2-a]pyridin-2-yl)-N-(4-fluoro-3-trifluoromethylbenzyl)benzenesulfonamide], under setting [1], the inhibition at 0.2 µM amounted to 94%. Moreover, it took 33.4 nM to reach half-maximal inhibition under setting [2] (IC50).

`O=S(=O)(c1ccccc1)N(Cc1ccc(C(F)(F)F)c(F)c1)c1cn2ccccc2n1` [Compound 24] had an IC50 under setting [2] of 13.4 nM.

As to `O=S(=O)(c1ccccc1)N(Cc1ccc(F)c(C(F)(F)F)c1)c1nc2ccccn2c1C1CC1` [Compound 69], under setting [2], the “% Inh (%) @ 0.2 μM” value is on record as 101% and the IC50 was 28.2 nM.

Take `Cc1ccn2c(C)c(N(Cc3ccc(OC(F)(F)F)cc3)S(=O)(=O)c3ccc(F)cc3)nc2c1` [Compound 67]: the inhibition at 0.2 µM under setting [1] was 96%. The IC50 under setting [2] came out at 62.1 nM.

(Values after patent US9067935B2 (Janssen Pharmaceutica, NV, priority 2010, dated 2015).)
